Measurements published in patent publication US8765755B2, “N-containing heterocyclic compounds” (YM Biosciences Australia Pty Ltd, priority 2007, dated 2014).

Legend:
CTLL2 = assay: Cellular screening, CTLL2 cells (Alamar Blue); format: cell-based; settings: Mus musculus, CTLL-2, 40 hr incubation
Experimental: (§1) For screening purposes, compounds were diluted in 96 well plates at a concentration of 20 μM. Plates were warmed at 37° C. for 30 minutes before the assay was performed.
(§2) Cell suspensions were prepared by harvesting cells from culture. (the cells used in this test were in late log phase growth with high viability.) Cells were diluted in the appropriate growth medium, as described above, to 1.1× final concentration (from 50,000 cell/mL to 200,000 cell/mL, depending on cell line).
(§3) Compounds to be tested were added (10 μL, 10× final concentration) to a flat bottomed 96-well plate. The cellular suspension (90 μL per well) was then added, and the plate incubated for 40 hr at 37° C., 5% CO2. Alamar Blue 10 μL per well was added and the plates returned to the incubator for a further 4-6 hours. The plates were then read at 544 nm.

BafT_J3 = assay: Cellular screening, BaF3 TEL:JAK3 cells (Alamar Blue); format: cell-based; settings: Mus musculus, 40 hr incubation
Experimental: as §1
(§4) The coding region encompassing nucleotides 1-487 of TEL was amplified by PCR using the oligonucleotides 5TEL (5′-GGAGGATCCTGATCTCTCTCGCTGTGAGAC-3′) [SEQ ID NO 14] and 3TEL (5′-AGGC GTCGACTTCTTCTTCATGGTTCTG-3′) [SEQ ID NO 15] and U937 mRNA as a template. A BamHI restriction site was incorporated into the 5TEL primer, and a Sal I restriction site was incorporated into the 3TEL primer. The regions encompassing the kinase domain of JAK2 (nucleotides 2994-3914; JAK2F 5′-ACGC GTCGACGGTGCCTTTGAAGACCGGGAT-3′ [SEQ ID NO 16]; JAK2R 5′-ATAGTTTAGCGGCCGCTCAGAATGAAGGTCATTT-3′) [SEQ ID NO 17] and JAK3 (nucleotides 2520-3469; JAK3F 5′-GAAGTCGACTATGCCTGCCAAGACCCCACGATCTT-3′) [SEQ ID NO 18] were generated by PCR using Taq DNA polymerase (Gibco/BRL) and U937 mRNA as a template. A Sal I restriction site was incorporated into the forward primer of JAK2 and JAK3, a Not I site was incorporated into the JAK2 reverse primer and a Xba I site was added to the reverse primer of JAK3.
The TEL/Jak3 fusion was prepared by ligation of the JAK3 Sal I/Not I cleaved kinase domain PCR product with the BamH I/Sal I restriction digested TEL product, followed by ligation of the ligation product into the BamH I/Not I digested pTRE2, to give the TEL/Jak3 fusion plasmid pTELJAK3.
(§5) The growth factor dependant myelomonocytic cell line BaF3 bearing the pTET-off plasmid (Clontech) was transfected with either pTELJAK2 or pTELJAK3, and the transfected cells were selected for growth-factor independent cell growth. The BaF3 wild-type cells were cultured in DMEM containing 10% FCS, 10% WEHI 3B conditioned medium. The BaF3 TELJAK cells ([…]) were cultured in DMEM 10% Tet-System Approved FBS (without WEHI 3B conditioned medium).
as §2, §3

human JAK3 = biological target: T1, human JAK3 (Homo sapiens, UniProt P52333); assay: JAK3 kinase enzyme assay (Alphascreen); format: biochemical; settings: 80 or 625 um ATP
T1 construct: The kinase domain of human JAK3 was amplified; GST (N); made in house; host or cells: Sf9 (Spodoptera frugiperda) insect cells, baculovirus
Experimental: (§6) For screening purposes, compounds (in 100% DMSO) were warmed at 37 degrees for at least 20 minutes before use. A […] stock was initially made in assay buffer, where the final concentration of DMSO was 0.3%. The stocks were then diluted in 384 well Optiplates (Packard) where the final concentration of the compound was 5 μM.
The kinase domain of human JAK3 was amplified from U937mRNA using the polymerase chain reaction with the following primers: […]
The JAK3 PCR products were cloned into the pDest20 destination expression vector (Gibco). The JAK3 plasmid was then transformed into competent DH10Bac cells (Gibco), and the recombinant baculovirus was prepared via Sf9 insect cell transfection.
(§7) Baculovirus preparations from each of the JAK family members were infected into one litre of Sf9 (Spodoptera frugiperda) cells (Invitrogen) grown in SF900II serum free medium (Invitrogen) to a cell density of approximately 2×10^6 cells/ml. Cells were infected with virus at a cell culture to virus stock ratio of 20:1. Cells were harvested and lysed 48 hours post infection. The GST-tagged JAK kinase domains were purified by affinity chromatography on a GSH agarose column (Scientifix).
(§8) Kinase assays were performed in 384 well Optiplates (Packard) using an Alphascreen Protein Tyrosine KinaseP100 detection kit The compounds were pre-incubated with affinity purified PTK domain in the presence of phosphotyrosine assay buffer (10 mM HEPES, pH 7.5, 100 mM MgCl2, 25 mM NaCl, 200 mM sodium vanadate and 0.1% Tween 20) for 20 minutes. The compounds were then incubated with substrate in the presence of either 80 or 625 um ATP for 60 or 90 minutes. The substrate used was either susbtrate-1 with the sequence biotin-EGPWLEEEEEAYGWMDF-NH2 [SEQ. ID. NO. 13] (final concentration 111 μM) or susbtrate-2 substrate with the sequence biotin-EQEDEPEGDYFEWLEPE (final concentration 133 μM). Alphascreen phosphotyrosine acceptor beads followed by streptavidin donor beads at a concentration of 1/100 in stop buffer were added to each well under subdued light and incubated for 2-3 hours. The Alphascreen plates were read on a Packard Fusion Alpha instrument.

BafT_J2 = assay: Cellular screening, BaF3 TEL:JAK2 cells (Alamar Blue); format: cell-based; settings: Mus musculus, 40 hr incubation
Experimental: as §1, §4
A TEL/Jak2 fusion was generated by digestion of the TELPCR product with BamH I/Sal I restriction enzymes, digestion of the JAK2 PCR product with Sal I/Not I restriction enzymes, followed by ligation and subcloning of the ligation product into the mammalian expression Vector pTRE 2 (Clontech), which was prepared by digestion with BamH I-Not I restriction enzymes, to give the TEL/Jak2 fusion plasmid pTELJAK2.
as §5, §2, §3

human JAK2 = biological target: T2, human JAK2 (Homo sapiens, UniProt O60674); assay: JAK2 kinase enzyme assay (Alphascreen); format: biochemical; settings: 80 or 625 um ATP
T2 construct: The kinase domain of human JAK2 was amplified; GST (N); made in house; host or cells: Sf9 (Spodoptera frugiperda) insect cells, baculovirus
Experimental: as §6
The kinase domain of human JAK2 was amplified from U937mRNA using the polymerase chain reaction with the following primers: […]
The JAK2 PCR products were cloned into the pDest20 destination vector (Gibco). The JAK2 plasmid was then transformed into competent DH10Bac cells (Gibco), and the recombinant baculovirus was prepared via Sf9 insect cell transfection.
as §7, §8

BAF3wt = assay: Cellular screening, BaF3 wild-type cells (Alamar Blue); format: cell-based; settings: Mus musculus, 40 hr incubation
Experimental: as §1, §5, §2, §3

T1 sequence (P52333 822-1111 limits assumed): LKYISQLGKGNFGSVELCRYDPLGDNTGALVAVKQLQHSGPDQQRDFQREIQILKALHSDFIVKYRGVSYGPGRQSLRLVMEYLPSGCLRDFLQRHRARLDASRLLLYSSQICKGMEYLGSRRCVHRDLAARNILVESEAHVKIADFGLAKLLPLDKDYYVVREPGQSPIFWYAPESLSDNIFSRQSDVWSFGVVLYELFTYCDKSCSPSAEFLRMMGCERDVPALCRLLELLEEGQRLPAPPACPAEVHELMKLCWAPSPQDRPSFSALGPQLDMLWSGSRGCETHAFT
T2 sequence (O60674 849-1124 limits assumed): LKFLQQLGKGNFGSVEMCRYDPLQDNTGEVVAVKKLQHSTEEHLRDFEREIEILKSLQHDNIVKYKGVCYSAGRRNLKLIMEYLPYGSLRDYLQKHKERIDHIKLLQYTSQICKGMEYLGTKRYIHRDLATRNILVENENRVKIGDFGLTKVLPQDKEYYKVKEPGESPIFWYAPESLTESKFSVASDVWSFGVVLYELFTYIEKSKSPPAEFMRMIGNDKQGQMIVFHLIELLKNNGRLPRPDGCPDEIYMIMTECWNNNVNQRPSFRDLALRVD

| SMILES | IC50 (CTLL2) | IC50 (BafT_J3) | IC50 (human JAK3) | IC50 (BafT_J2) | IC50 (human JAK2) | IC50 (BAF3wt) |
| --- | --- | --- | --- | --- | --- | --- |
| CS(=O)(=O)Nc1cccc(-c2csc3cnc(Nc4ccc(CN5CCOCC5)cc4)nc23)c1 [Compound 83, N-(3-(2-(4-(morpholinomethyl)phenylamino)thieno[3,2-d]pyrimidin-7-yl)phenyl)methanesulfonamide] | < 1 µM | < 1 µM | < 0.1 µM | < 1 µM | < 0.1 µM | < 1 µM |
| CN1CCN(c2ccc(-c3csc4cnc(Nc5ccc(CN6CCOCC6)cc5)nc34)cc2)CC1 [Compound 84, 7-(4-(4-methylpiperazin-1-yl)phenyl)-N-(4-(morpholinomethyl)phenyl)thieno[3,2-d]pyrimidin-2-amine] | < 1 µM | < 1 µM | < 0.5 µM | < 1 µM | < 0.1 µM | < 1 µM |
| COc1cc(-c2csc3cnc(Nc4ccc(CN5CCOCC5)cc4)nc23)ccc1NC(C)=O [Compound 85, N-(2-methoxy-4-(2-(4-(morpholinomethyl)phenylamino)thieno[3,2-d]pyrimidin-7-yl)phenyl)acetamide] | < 1 µM | < 1 µM | < 0.1 µM | < 1 µM | < 0.1 µM | < 1 µM |
| COc1cc(Nc2ncc3scc(-c4cccc(CO)c4)c3n2)cc(OC)c1OC [Compound 87, (3-(2-(3,4,5-trimethoxyphenylamino)thieno[3,2-d]pyrimidin-7-yl)phenyl)methanol] | < 1 µM | < 1 µM | < 0.1 µM | < 1 µM | < 0.1 µM | < 1 µM |
| COc1cc(Nc2ncc3scc(-c4ccc(CO)cc4)c3n2)cc(OC)c1OC [Compound 88, (4-(2-(3,4,5-trimethoxyphenylamino)thieno[3,2-d]pyrimidin-7-yl)phenyl)methanol] | < 1 µM | < 1 µM | < 0.1 µM | < 1 µM | < 0.1 µM | < 1 µM |
| OCc1cccc(-c2csc3cnc(Nc4ccc(N5CCOCC5)cc4)nc23)c1 [Compound 89, (3-(2-(4-morpholinophenylamino)thieno[3,2-d]pyrimidin-7-yl)phenyl)methanol] | < 1 µM | < 1 µM | < 0.1 µM | < 1 µM | < 0.1 µM | < 1 µM |
| OCc1ccc(-c2csc3cnc(Nc4ccc(N5CCOCC5)cc4)nc23)cc1 [Compound 90, (4-(2-(4-morpholinophenylamino)thieno[3,2-d]pyrimidin-7-yl)phenyl)methanol] | < 1 µM | < 1 µM | < 0.1 µM | < 1 µM | < 0.1 µM | < 1 µM |
| CS(=O)(=O)NCc1cccc(-c2csc3cnc(Nc4ccc(OCCN5CCCC5)cc4)nc23)c1 [Compound 91] | < 1 µM | < 1 µM | < 0.1 µM | < 1 µM | < 0.1 µM | < 1 µM |
| CC(C)(C)OC(=O)NCc1cccc(-c2csc3cnc(Nc4ccc(CN5CCOCC5)cc4)nc23)c1 [Compound 92] | < 1 µM | < 5 µM | < 0.5 µM | < 5 µM | < 0.1 µM | < 1 µM |
| c1cc(-c2csc3cnc(Nc4ccc(CN5CCOCC5)cc4)nc23)cc(N2CCNCC2)c1 [Compound 93, N-(4-(morpholinomethyl)phenyl)-7-(3-(piperazin-1-yl)phenyl)thieno[3,2-d]pyrimidin-2-amine] | < 1 µM | < 1 µM | < 0.1 µM | < 1 µM | < 0.1 µM | < 1 µM |
| COc1cc(Nc2ncc3scc(-c4ccc(NCCN5CCOCC5)nc4)c3n2)cc(OC)c1OC [Compound 94, 7-(6-(2-morpholinoethylamino)pyridin-3-yl)-N-(3,4,5-trimethoxyphenyl)thieno[3,2-d]pyrimidin-2-amine] | < 1 µM | < 1 µM | < 0.5 µM | < 1 µM | < 0.1 µM | < 1 µM |
| CCc1ccccc1-c1csc2cnc(Nc3ccc(OCCN4CCCC4)cc3)nc12 [Compound 95, 7-(2-ethylphenyl)-N-(4-(2-(pyrrolidin-1-yl)ethoxy)phenyl)thieno[3,2-d]pyrimidin-2-amine] | < 1 µM | < 1 µM | < 0.1 µM | < 1 µM | < 0.1 µM | < 1 µM |
| CC(C)c1ccccc1-c1csc2cnc(Nc3ccc(OCCN4CCCC4)cc3)nc12 [Compound 96] | < 1 µM | < 1 µM | < 0.1 µM | < 1 µM | < 0.1 µM | < 1 µM |
| NCc1ccc(-c2csc3cnc(Nc4ccc(CN5CCOCC5)cc4)nc23)cc1 [Compound 97, 7-(4-(aminomethyl)phenyl)-N-(4-(morpholinomethyl)phenyl)thieno[3,2-d]pyrimidin-2-amine] | < 1 µM | < 1 µM | < 0.1 µM | < 1 µM | < 0.1 µM | < 1 µM |
| CCN1CCC(Oc2ccc(Nc3ncc4scc(-c5cn[nH]c5)c4n3)cc2)CC1 [Compound 98, N-(4-(1-ethylpiperidin-4-yloxy)phenyl)-7-(1H-pyrazol-4-yl)thieno[3,2-d]pyrimidin-2-amine] | < 1 µM | < 1 µM | < 0.1 µM | < 1 µM | < 0.1 µM | < 1 µM |
